Source: patent US9801376B2, “Synergistic pesticidal compositions and related methods” (Dow AgroSciences LLC, priority 2013, dated 2017)

Columns and labels:
Format in all cases: in vivo
[1] = tested on: Western plant bug, Lygus hesperus; assay: Western plant bug bean-piece dip bioassay (Examples 10 and 11)
Experimental: Bean pieces (about one inch-long) were used for the tests. Four bean pieces were placed in each tested active solution and left there for 10 minutes. Bean pieces were taken out of the active solution, and each piece was placed in a well in a 32-well tray and allowed to air dry. Three third-instar nymphs of Western plant bug, Lygus hesperus, were infested into each well.

[2] = tested on: brown stink bug, Euschistus heros; assay: Brown stink bug diet-treatment bioassay (Example 6); settings: alone
[3] = tested on: diamondback moth, Plutella xylostella; assay: Diamondback moth bioassay on track-sprayed cabbage (Example 7); settings: alone, dose rate 0.000078 weight %
Excerpt: Three second-instar diamondback moth, Plutella xylostella, were infested onto each leaf disc.

[4] = tested on: Western flower thrips, Frankliniella occidentalis (Pergande); assay: Western flower thrips bioassay on treated first true cotton leaves (Example 5); settings: alone
Experimental: Ten second instar larvae of the Western flower thrips, Frankliniella occidentalis (Pergande), were infested onto each leaf disc. […] The “Colby's Expected Action” was calculated using Colby's equation as discussed previously.

[5] = tested on: brown stink bug, Euschistus heros; assay: Brown stink bug bean-piece dip bioassay (Example 8); settings: alone
Experimental: The active compounds were formulated in a 10% acetone solution with 0.025% non-ionic surfactant, TWEEN® 20. Bean pieces (about one inch-long) were used for the tests. Four bean pieces were placed in each tested active solution and left there for 10 minutes. Bean pieces were taken out of the active solution, and each piece was placed in a well in a 32-well tray and allowed to air dry. Three third-instar nymphs of brown stink bug, Euschistus heros, were infested into each well.
The active compounds formulated in a 10% acetone solution with 0.025% non-ionic surfactant, TWEEN® 20 were tested against brown stink bugs, Euschistus heros, according to the procedure described in example 8A.

[6] = tested on: Western flower thrips, Frankliniella occidentalis; assay: Western flower thrips cotton leaf punch dip bioassay (Example 9); settings: alone
Experimental: The active compounds were formulated in a 10% acetone solution with 0.025% non-ionic surfactant, TWEEN® 20. Cotton leaf punches were used for bioassays. Two cotton leaf punches were placed in each solution and left there for 10 minutes. Leaves were taken out of the solution, placed on a piece of filter paper in separated Petri dishes, and air dried. Each leaf disc was considered a repetition. Five nymph of Western flower thrips, Frankliniella occidentalis, were infested per repetition.

Row | SMILES | % Control Three Days After Treatment ([1]; acetamiprid alone, dose rate 0.005 weight %) | % Control Three Days After Treatment ([1]; acetamiprid alone, dose rate 0.02 weight %) | % Control Six Days After Treatment ([2]; dose rate 0.000039 weight %) | % Control Six Days After Treatment ([2]; dose rate 0.000078 weight %) | % Control Six Days After Treatment ([2]; dose rate 0.000156 weight %) | % Control Three Days After Treatment [3] | % Control Three Days After Treatment ([4]; dose rate 0.002 weight %) | % Control Three Days After Treatment ([4]; dose rate 0.02 weight %) | % Control Three Days After Treatment ([1]; dinotefuran alone, dose rate 0.000078 weight %) | % Control Three Days After Treatment ([1]; dinotefuran alone, dose rate 0.00125 weight %) | % Control Three Days After Treatment ([1]; dinotefuran alone, dose rate 0.005 weight %) | % Control Three Days After Treatment ([1]; dinotefuran alone, dose rate 0.02 weight %) | % Control Four Days After Treatment ([5]; dose rate 0.0025 weight %) | % Control Four Days After Treatment ([5]; dose rate 0.01 weight %) | % Control Three Days After Treatment ([6]; dose rate 0.00002 weight %) | % Control Three Days After Treatment ([6]; dose rate 0.000078 weight %) | % Control Three Days After Treatment ([6]; dose rate 0.0003125 weight %) | % Control Three Days After Treatment ([6]; dose rate 0.00125 weight %) | % Control Three Days After Treatment ([6]; dose rate 0.005 weight %) | % Control Three Days After Treatment ([6]; dose rate 0.02 weight %)
1 | C/C(=N\C#N)N(C)Cc1ccc(Cl)nc1 [Acetamiprid, (1E)-N-[(6-chloro-3-pyridyl)methyl]-N′-cyano-N-methyl acetamidine] | 0% | 33% | 0% | 0% | 9% | 4.17% | 30% | 60% |  |  |  |  |  |  |  |  |  |  |  | 
2 | CN=C(NCC1CCOC1)N[N+](=O)[O-] (centres unmarked) [Dinotefuran, 2-methyl-1-nitro-3-[(tetrahydro-3-furanyl)methyl]guanidine] |  |  |  |  |  |  |  |  | 0% | 8% | 17% | 92% | 50% | 75% | 0% | 0% | 0% | 0% | 10% | 0%
